Substitutions are numbered along the chain they refer to. “And” between values parts separate entries of the source, which are not always exact repeats. Identical values can stand only once.
How the values were obtained:
F493A mutant hTRPV6 = molecular target: T1, F493A mutant hTRPV6 (Homo sapiens, UniProt Q9H1D0, F533A); assay: Fura-2 AM Ca2+ uptake, F493A mutant hTRPV6; format: cell-based
T1 construct: Full-length wild-type or mutant human TRPV6 was expressed in HEK 293S cells as described above; expressed in transfected cells; host or cells: HEK 293S GnTI- (baculovirus/BacMam transduction)
T1 sequence (Q9H1D0 41-765 F533A limits assumed): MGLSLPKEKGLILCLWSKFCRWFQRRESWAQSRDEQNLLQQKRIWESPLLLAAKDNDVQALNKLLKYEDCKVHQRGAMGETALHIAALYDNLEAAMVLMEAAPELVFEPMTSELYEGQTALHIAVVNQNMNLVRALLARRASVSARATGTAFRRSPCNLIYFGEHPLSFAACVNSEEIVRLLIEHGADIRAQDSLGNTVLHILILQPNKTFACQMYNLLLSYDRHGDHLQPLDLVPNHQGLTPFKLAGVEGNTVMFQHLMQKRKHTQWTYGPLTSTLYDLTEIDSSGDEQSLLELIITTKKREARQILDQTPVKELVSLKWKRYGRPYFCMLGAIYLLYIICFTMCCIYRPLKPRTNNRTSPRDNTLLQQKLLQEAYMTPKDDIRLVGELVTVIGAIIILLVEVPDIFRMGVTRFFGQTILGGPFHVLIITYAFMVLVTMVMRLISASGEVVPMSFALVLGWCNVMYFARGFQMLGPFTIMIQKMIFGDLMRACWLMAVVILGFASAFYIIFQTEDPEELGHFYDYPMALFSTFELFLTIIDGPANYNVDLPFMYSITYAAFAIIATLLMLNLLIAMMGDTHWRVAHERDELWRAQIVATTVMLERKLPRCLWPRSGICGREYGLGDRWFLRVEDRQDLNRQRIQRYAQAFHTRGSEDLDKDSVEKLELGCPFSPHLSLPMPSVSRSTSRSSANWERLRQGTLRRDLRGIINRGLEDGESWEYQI

T567A mutant hTRPV6 = molecular target: T2, T567A mutant hTRPV6 (Homo sapiens, UniProt Q9H1D0, T607A); assay: Fura-2 AM Ca2+ uptake, T567A mutant hTRPV6; format: cell-based
T2 construct: Full-length wild-type or mutant human TRPV6 was expressed in HEK 293S cells as described above; expressed in transfected cells; host or cells: HEK 293S GnTI- (baculovirus/BacMam transduction)
T2 sequence (Q9H1D0 41-765 T607A limits assumed): T1 sequence (Q9H1D0 41-765 F533A limits assumed) with A493F, T567A

[1] = test system: non-transfected HEK293 cells; assay: Fura-2 AM measurements in non-transfected cells (Control, non-specific effects); format: cell-based
TRPV5 = test system: TRPV5; design: method as in PMID 28535500; details: rat model for osteoarthritis; cited from earlier work

## CCCc1cc(O)c2c(c1)OC(C)(C)[C@@H]1CCC(C)=C[C@@H]21 [THCV, tetrahydrocannabivarin]
F493A mutant hTRPV6
  IC50: 2.7 ± 0.23 µM
F493A mutant hTRPV6; F493A, high THCV concentration
  fraction of uninhibited channels: ~ 20%
T567A mutant hTRPV6
  IC50: 12 ± 0.7 µM
T567A mutant hTRPV6; 1 μM THCV, replicates
  change in F340/F380 evoked by 10 mM Ca2+: 1.267
[1]; 1 μM THCV, non-transfected Control for L490W
  change in F340/F380 evoked by 10 mM Ca2+: 0.594 and 0.640 and 0.727 and 0.615 and 0.755 and 0.577 and 0.626 and 0.554
[1]; 1 μM THCV, non-transfected Control for L568Q
  change in F340/F380 evoked by 10 mM Ca2+: 0.236 and 0.186 and 0.230 and 0.259
[1]; 1 μM THCV, non-transfected Control for WT
  change in F340/F380 evoked by 10 mM Ca2+: 0.249 and 0.167 and 0.182 and 0.175 and 0.226 and 0.257 and 0.284
[1]; 3 μM THCV, non-transfected Control for A561W
  change in F340/F380 evoked by 10 mM Ca2+: 0.179 and 0.153 and 0.129 and 0.145
[1]; 3 μM THCV, non-transfected Control for L490W
  change in F340/F380 evoked by 10 mM Ca2+: 0.538 and 0.676 and 0.767 and 0.653 and 0.598 and 0.662 and 0.719 and 0.624
[1]; 3 μM THCV, non-transfected Control for L568Q
  change in F340/F380 evoked by 10 mM Ca2+: 0.250 and 0.211 and 0.221 and 0.198
[1]; 3 μM THCV, non-transfected Control for WT
  change in F340/F380 evoked by 10 mM Ca2+: 0.179 and 0.155 and 0.221 and 0.163 and 0.257 and 0.246 and 0.260 and 0.248
[1]; 10 μM THCV, non-transfected Control for A561W
  change in F340/F380 evoked by 10 mM Ca2+: 0.140 and 0.130 and 0.114 and 0.151
[1]; 10 μM THCV, non-transfected Control for L490W
  change in F340/F380 evoked by 10 mM Ca2+: 0.786 and 0.674 and 0.776 and 0.581 and 0.711 and 0.793 and 0.539 and 0.598
[1]; 10 μM THCV, non-transfected Control for L568Q
  change in F340/F380 evoked by 10 mM Ca2+: 0.183 and 0.286 and 0.214 and 0.195
[1]; 10 μM THCV, non-transfected Control for WT
  change in F340/F380 evoked by 10 mM Ca2+: 0.157 and 0.141 and 0.174 and 0.159 and 0.185 and 0.222 and 0.233 and 0.195
[1]; 30 μM THCV, non-transfected Control for A561W
  change in F340/F380 evoked by 10 mM Ca2+: 0.167 and 0.140 and 0.127 and 0.125
[1]; 30 μM THCV, non-transfected Control for L490W
  change in F340/F380 evoked by 10 mM Ca2+: 0.558 and 0.549 and 0.721 and 0.691 and 0.606 and 0.572 and 0.500 and 0.698
[1]; 30 μM THCV, non-transfected Control for L568Q
  change in F340/F380 evoked by 10 mM Ca2+: 0.187 and 0.206 and 0.233
[1]; 30 μM THCV, non-transfected Control for WT
  change in F340/F380 evoked by 10 mM Ca2+: 0.137 and 0.141 and 0.135 and 0.156 and 0.185 and 0.188 and 0.221 and 0.228
[1]; 100 μM THCV, non-transfected Control for A561W
  change in F340/F380 evoked by 10 mM Ca2+: 0.497
[1]; 100 μM THCV, non-transfected Control for L490W
  change in F340/F380 evoked by 10 mM Ca2+: 0.627 and 0.939 and 0.740 and 0.797 and 0.911 and 0.811 and 1.132 and 0.767
[1]; 100 μM THCV, non-transfected Control for WT
  change in F340/F380 evoked by 10 mM Ca2+: 0.644
TRPV5
  effect on joint destruction: slow the progression of joint destruction

Source: PMC10397291, “Molecular pathway and structural mechanism of human oncochannel TRPV6 inhibition by the phytocannabinoid tetrahydrocannabivarin” (Nature Communications, 2023)
